{
  "source": "paper PMC6886523",
  "about": "(Nature chemical biology, 2017)",
  "key": {"TrpAB": {"biological_target": "TrpAB (Mycobacterium tuberculosis, UniProt P9WFX9+P9WFY1)", "sequence (P9WFX9 12-421)": "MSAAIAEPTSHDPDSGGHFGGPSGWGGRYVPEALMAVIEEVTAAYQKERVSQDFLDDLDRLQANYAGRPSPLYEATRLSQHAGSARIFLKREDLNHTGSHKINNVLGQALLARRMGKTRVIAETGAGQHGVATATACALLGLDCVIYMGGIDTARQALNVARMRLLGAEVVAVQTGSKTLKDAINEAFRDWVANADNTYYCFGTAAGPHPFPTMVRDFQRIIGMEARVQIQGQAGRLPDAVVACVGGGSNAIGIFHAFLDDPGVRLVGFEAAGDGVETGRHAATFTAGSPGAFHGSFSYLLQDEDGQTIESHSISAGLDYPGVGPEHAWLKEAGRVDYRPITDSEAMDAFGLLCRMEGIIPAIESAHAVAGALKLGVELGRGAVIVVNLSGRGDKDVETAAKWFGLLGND", "sequence (P9WFY1 whole entry)": "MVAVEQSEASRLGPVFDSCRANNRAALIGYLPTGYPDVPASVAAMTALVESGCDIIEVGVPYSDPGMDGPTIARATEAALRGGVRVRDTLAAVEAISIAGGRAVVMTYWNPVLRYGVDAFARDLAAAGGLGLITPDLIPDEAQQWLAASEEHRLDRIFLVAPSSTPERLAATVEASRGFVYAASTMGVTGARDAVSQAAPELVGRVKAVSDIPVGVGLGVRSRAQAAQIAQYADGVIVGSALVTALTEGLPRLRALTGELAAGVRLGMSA", "type": "biochemical"}, "M. marinum": {"test_system": "M. marinum", "test": "Zebrafish embryo infection, wild-type M. marinum", "type": "in vivo, Danio rerio (zebrafish)", "details": "after 5 d of treatment"}, "Mtb TrpAB [1]": {"biological_target": "T1, Mtb TrpAB (Mycobacterium tuberculosis, UniProt P9WFX9+P9WFY1)", "T1 sequence (P9WFY1 whole entry)": "as above", "T1 sequence (P9WFX9 12-421)": "as the sequence (P9WFX9 12-421) above", "type": "biochemical"}, "GAPDH": {"test_system": "GAPDH", "test": "GAPDH counter-check in coupled fluorescence assay", "details": "fluorescence assay conditions"}, "in vitro [2]": {"test": "in vitro", "details": "mouse, microsomes"}, "[3]": {"test_system": "panel of Gram-negative and Gram-positive bacterial species", "type": "cell-based"}, "Mtb [4]": {"test_system": "Mtb", "type": "cell-based, Mycobacterium tuberculosis"}, "Mtb TrpAB [5]": {"biological_target": "T1, Mtb TrpAB", "type": "biochemical", "remark": "listed apart in the source"}, "[6]": {"details": "ref PubChem compound ID 54650477; cited from earlier work"}, "in vitro [7]": {"test": "in vitro", "details": "mouse, hepatocytes"}, "Mtb in J774 macrophages": {"test_system": "Mtb in J774 macrophages", "type": "cell-based", "details": "day 3 CFU/day 0 CFU"}, "Mtb TrpAB [8]": {"biological_target": "T1, Mtb TrpAB"}, "Mtb TrpAB [9]": {"biological_target": "T1, Mtb TrpAB", "type": "binding"}, "Mtb [10]": {"test_system": "Mtb", "test": "microbe, parasite or virus in culture", "type": "cell-based"}},
  "data": [
    {"compound": "N#C[C@@H]1N[C@@H](CO)[C@H]1c1ccc(-c2ccccc2F)cc1", "note": "[BRD4592, (2R,3S,4R)-3-(2′-fluoro-[1,1′-biphenyl]-4-yl)-4-(hydroxymethyl)azetidine-2-carbonitrile]", "values": [
      {"measurement": "reversibility of inhibition", "setting": "TrpAB", "value": "reversible inhibitor"},
      {"measurement": "restriction of M. marinum growth in zebrafish embryos compared to DMSO", "setting": "M. marinum", "value": "~ 1.5 logs"},
      {"measurement": "initial inhibition of the α-reaction", "setting": "Mtb TrpAB [1]", "value": "more than 200 fold"},
      {"measurement": "kcat^α under saturating compound", "setting": "Mtb TrpAB [1]", "value": "0.0013 ± 0.00017", "unit": "s⁻¹"},
      {"measurement": "mode of inhibition versus IGP", "setting": "Mtb TrpAB [1]", "value": "uncompetitive"},
      {"measurement": "mode of inhibition versus L-Ser", "setting": "Mtb TrpAB [1]", "value": "mixed-type inhibitor"},
      {"measurement": "α value (mixed-type inhibition)", "setting": "Mtb TrpAB [1]", "value": "0.81 ± 0.06"},
      {"measurement": "α values (mixed model)", "setting": "Mtb TrpAB [1]", "value": "< 0.00001"},
      {"measurement": "inhibition of GAPDH activity", "setting": "GAPDH", "value": "not found to inhibit"},
      {"measurement": "microsomal CLint at 1 μM", "setting": "in vitro [2]", "value": 336, "unit": "µL/min/mg"},
      {"measurement": "spectrum of activity against bacterial species", "setting": "[3]", "value": "active against several mycobacterial species but not other bacteria tested"},
      {"measurement": "reduction of colony-forming units (CFUs) of Mtb cultures", "setting": "Mtb [4]", "value": "2–3 logs"},
      {"measurement": "initial inhibition of the β-reaction", "setting": "Mtb TrpAB [5]", "value": "more than 200 fold"},
      {"measurement": "kcat^β under saturating compound", "setting": "Mtb TrpAB [5]", "value": "0.00433 ± 0.00017", "unit": "s⁻¹"},
      {"measurement": "mode of inhibition with respect to indole", "setting": "Mtb TrpAB [5]", "value": "uncompetitive"},
      {"measurement": "rate of L-Trp production slower than uninhibited enzyme", "setting": "Mtb TrpAB [5]", "value": 750, "unit": "times"},
      {"measurement": "activity in 36 screens reported in PubChem", "setting": "[6]", "value": "no activity"},
      {"measurement": "hepatocyte CLint at 1 μM", "setting": "in vitro [7]", "value": 47.2, "unit": "µL/min/1e6 cells"},
      {"measurement": "restriction of Mtb growth in macrophages compared to DMSO", "setting": "Mtb in J774 macrophages", "value": "eight-fold"},
      {"measurement": "Tm of TrpAB with compound", "setting": "Mtb TrpAB [8]", "value": "81.6 ± 0.2", "unit": "°C"},
      {"measurement": "increase of Tm of TrpAB in active β^C conformation", "setting": "Mtb TrpAB [8]", "value": 8, "unit": "°C"},
      {"measurement": "stabilization of the open conformation", "setting": "Mtb TrpAB [8]", "value": "did not stabilize"},
      {"measurement": "increase in affinity of TrpAB for L-Trp", "setting": "Mtb TrpAB [9]", "value": 4.5, "unit": "fold"},
      {"measurement": "effect of L-Trp addition to growth medium on lethal effects", "setting": "Mtb [10]; 1 mM L-Trp supplementation", "value": "rescued"},
      {"measurement": "MIC90", "setting": "Mtb [10]; Mycobacterium tuberculosis, read-out: MIC90 (minimal concentration needed to inhibit 90% of bacterial growth)", "value": 3, "unit": "µM"},
      {"measurement": "activity among the stereoisomers of the azetidine", "setting": "Mtb [10]; three stereogenic centers, eight stereoisomeric forms", "value": "only the BRD4592 stereoisomer was active"}
    ]}
  ]
}
